Here are results for eight compounds from the RepoRT retention time repository (doi:10.1016/j.jchromb.2020.122105).

Structures can show the parent of a compound that is named as a salt.

Holding throughout (details): stereoisomer not certain
Data set [1] in a line: HILIC, Merck SeQuant ZIC-HILIC, 150 × 2.1 mm, 5 µm, 0.75 mL/min, estimated dead time 0.44 min; A: water + 0.1% acetic acid + 10 mM ammonium acetate, pH 4; B: 5% water + 95% acetonitrile + 0.1% acetic acid + 10 mM ammonium acetate, pH 4; gradient (min/%B) 0/95 5/95 20/57 25/57 30/95 40/95.
A short description of data set [2]: RP, Waters ACQUITY UPLC BEH C18, 100 × 2.1 mm, 1.7 µm, 0.1 mL/min, estimated dead time 2.2 min; A: water + 0.1% formic acid, pH 3; B: methanol + 0.1% formic acid, pH 3; gradient (min/%B) 0/5 5/5 25/95 25.1/100 35/100 35.1/5 45/5.
The nature of data set [3]: RP, Waters CORTECS T3, 100 × 2.1 mm, 2.7 µm, 0.25 mL/min, estimated dead time 0.88 min; A: water + 0.1% formic acid, pH 3; B: methanol + 0.1% formic acid, pH 3; gradient (min/%B) 0/5 5/5 25/95 25.1/100 35/100 35.1/5 45/5.
Data set [4] can be described thus: RP, Waters CORTECS T3, 100 × 2.1 mm, 2.7 µm, 0.2 mL/min, estimated dead time 1.1 min; A: water + 0.1% formic acid, pH 3; B: methanol + 0.1% formic acid, pH 3; gradient (min/%B) 0/0 1/0 6/5 30/100 35/100 35.1/0 40/0.
Data set [5] in a line: RP, Waters CORTECS T3, 100 × 2.1 mm, 2.7 µm, 0.3 mL/min, estimated dead time 0.73 min; A: water + 0.1% formic acid, pH 3; B: methanol + 0.1% formic acid, pH 3; gradient (min/%B) 0/0 5/0 25/100 30/100 30.1/0 35/0.
The nature of data set [6]: RP, Waters ACQUITY UPLC BEH C18, 100 × 2.1 mm, 1.7 µm, 0.2 mL/min, estimated dead time 1.1 min; A: water + 0.025% formic acid + 20 mM ammonium acetate + 0.055% ammonium hydroxide, pH 7; B: methanol; gradient (min/%B) 0/5 5/5 25/100 30/100 30.1/5 35/5.
Data set [7] is described as follows: RP, Waters CORTECS T3, 100 × 2.1 mm, 2.7 µm, 0.3 mL/min, estimated dead time 0.73 min; A: water + 0.1% formic acid, pH 3; B: methanol + 0.1% formic acid, pH 3; gradient (min/%B) 0/0 1/0 6/5 30/100 35/100 35.1/0 40/0.
Data set [8] is described as follows: RP, Waters CORTECS T3, 100 × 2.1 mm, 2.7 µm, 0.15 mL/min, estimated dead time 1.5 min; A: water + 0.1% formic acid, pH 3; B: methanol + 0.1% formic acid, pH 3; gradient (min/%B) 0/5 5/5 25/95 25.1/100 35/100 35.1/5 45/5.
A short description of data set [9]: RP, Waters CORTECS T3, 100 × 2.1 mm, 2.7 µm, 0.2 mL/min, estimated dead time 1.1 min; A: water + 0.1% formic acid, pH 3; B: methanol + 0.1% formic acid, pH 3; gradient (min/%B) 0/5 5/5 25/95 25.1/100 35/100 35.1/5 45/5.
The nature of data set [10]: RP, Waters ACQUITY UPLC BEH C18, 100 × 2.1 mm, 1.7 µm, 0.2 mL/min, estimated dead time 1.1 min; A: water + 0.1% formic acid, pH 3; B: methanol + 0.1% formic acid, pH 3; gradient (min/%B) 0/5 5/5 25/100 30/100 30.1/5 35/5.
The nature of data set [11]: HILIC, Thermo Scientific Accucore HILIC, 100 × 2.1 mm, 2.6 µm, 0.5 mL/min, estimated dead time 0.44 min; A: water + 0.1% formic acid + 10 mM ammonium formate, pH 3; B: 5% water + 95% acetonitrile + 0.1% formic acid + 10 mM ammonium formate, pH 3; gradient (min/%B) 0/95 5/95 20/57 25/57 30/95 40/95.
Data set [12] is described as follows: HILIC, Merck SeQuant ZIC-HILIC, 150 × 2.1 mm, 5 µm, 0.75 mL/min, estimated dead time 0.44 min; A: water + 10 mM ammonium formate, pH 6; B: 5% water + 95% acetonitrile + 10 mM ammonium formate, pH 6; gradient (min/%B) 0/95 5/95 20/57 25/57 30/95 40/95.
Data set [13] in a line: HILIC, Waters XBridge BEH Amide, 100 × 2.1 mm, 2.5 µm, 0.5 mL/min, estimated dead time 0.44 min; A: water + 0.1% acetic acid + 10 mM ammonium acetate, pH 4; B: 5% water + 95% acetonitrile + 0.1% acetic acid + 10 mM ammonium acetate, pH 4; gradient (min/%B) 0/95 5/95 20/57 25/57 30/95 40/95.
Data set [14] in a line: RP, Waters CORTECS T3, 100 × 2.1 mm, 2.7 µm, 0.25 mL/min, estimated dead time 0.88 min; A: water + 0.1% formic acid, pH 3; B: methanol + 0.1% formic acid, pH 3; gradient (min/%B) 0/0 1/0 6/5 30/100 35/100 35.1/0 40/0.
Data set [15] is described as follows: RP, Waters ACQUITY UPLC BEH C18, 100 × 2.1 mm, 1.7 µm, 0.1 mL/min, estimated dead time 2.2 min; A: water + 0.1% formic acid, pH 3; B: methanol + 0.1% formic acid, pH 3; gradient (min/%B) 0/5 5/5 25/100 30/100 30.1/5 35/5.
Data set [16] in a line: RP, Waters ACQUITY UPLC BEH C18, 100 × 2.1 mm, 1.7 µm, 0.1 mL/min, estimated dead time 2.2 min; A: water + 0.045% formic acid + 0.11% ammonium hydroxide, pH 7; B: methanol; gradient (min/%B) 0/5 5/5 25/95 25.1/100 35/100 35.1/5 45/5.
Data set [17] is described as follows: RP, Waters ACQUITY UPLC BEH C18, 100 × 2.1 mm, 1.7 µm, 0.2 mL/min, estimated dead time 1.1 min; A: water + 0.025% formic acid + 20 mM ammonium acetate + 0.055% ammonium hydroxide, pH 7; B: methanol; gradient (min/%B) 0/5 5/5 25/100 30/100 30.1/5 35/5. This is another data set of the same source.
Data set [18] in a line: RP, Waters CORTECS T3, 100 × 2.1 mm, 2.7 µm, 0.3 mL/min, estimated dead time 0.73 min; A: water + 0.1% formic acid, pH 3; B: methanol + 0.1% formic acid, pH 3; gradient (min/%B) 0/0 5/0 25/100 30/100 30.1/0 35/0. The source holds these as a separate data set.
Data set [19] is described as follows: RP, Waters CORTECS T3, 100 × 2.1 mm, 2.7 µm, 0.15 mL/min, estimated dead time 1.5 min; A: water + 0.1% formic acid, pH 3; B: methanol + 0.1% formic acid, pH 3; gradient (min/%B) 0/0 1/0 6/5 30/100 35/100 35.1/0 40/0.
Data set [20] is described as follows: RP, Waters CORTECS T3, 100 × 2.1 mm, 2.7 µm, 0.3 mL/min, estimated dead time 0.73 min; A: water + 0.1% formic acid, pH 3; B: methanol + 0.1% formic acid, pH 3; gradient (min/%B) 0/0 1/0 6/5 30/100 35/100 35.1/0 40/0. The source holds these as a separate data set.
Data set [21] is described as follows: RP, Thermo Scientific Hypercarb, 150 × 2.1 mm, 5 µm, 0.1 mL/min, estimated dead time 3.3 min; A: water + 0.1% formic acid, pH 3; B: methanol + 0.1% formic acid, pH 3; gradient (min/%B) 0/5 5/5 20/100 35/100 35.1/5 45/5.

Turning to `CSCCC(NC=O)C(=O)O` [FORMYL-L-METHIONYL PEPTIDE], the LC retention time is 7.68 min in data set [1]; 12.3 min in data set [2]; 6.13 min in [3]; 9.43 min in data set [4]; 8.31 min in data set [5]; 2.14 min in data set [6]. Further, the LC retention time in data set [7] is 7.57 min; in [8], 9.18 min; in data set [9], 13.3 min; in data set [10] it was 8.3 min; in [11] it was 5.85 min.
For `CC(=O)NCCCC(=O)[O-]` [4-ACETAMIDOBUTANOATE], the LC retention time is 8.54 min in data set [1]; 6.08 min in data set [2]; 2.43 min in data set [3]; 5.13 min in data set [4]; 3.7 min in data set [5]; 1.38 min in [6]. Moreover, the LC retention time in [7] was 3.71 min; in data set [8], 3.97 min; in data set [9] it was 9.19 min; in [10] it was 3.16 min; in data set [11], 2.99 min.
For `O=C(O)CCCCCCC(=O)O` [SUBERIC ACID], the LC retention time in data set [2] is 18 min; in [3], 13.5 min; in data set [4], 16.1 min; in data set [5], 13.5 min; in data set [7], 14.6 min; in data set [8], 15.6 min. In addition, the LC retention time in data set [9] is 19.6 min; in [10] it was 14.3 min; in data set [11] it was 1.39 min.
Turning to `O=C(O)CCCCCC(=O)O` [6-CARBOXYHEXANOATE], the LC retention time is 11.9 min in [1]; 15.6 min in data set [2]; 10.9 min in data set [3]; 13.3 min in [4]; 11.3 min in data set [5]; 12.9 min in data set [12]. Also, the LC retention time in [7] is 11.7 min; in data set [8], 13.1 min; in [9] it was 16.9 min; in data set [10], 11.9 min; in data set [11] it was 2.01 min.
`Nc1ccccc1S(=O)(=O)O` [ANILINE-2-SULFONIC ACID]: the LC retention time in [2] was 5.22 min; in data set [3], 1.89 min; in data set [4], 3.02 min; in [5], 2.13 min; in data set [6] it was 2.03 min; in data set [13] it was 1.66 min. Further, the LC retention time is 2.13 min in [7]; 3.09 min in [8]; 5.88 min in [9]; 2.68 min in data set [10]; 1.05 min in [11].
Regarding `Nc1ncnc2nc[nH]c12` [ADENINE], the LC retention time in data set [2] is 2.65 min; in [14] it was 1.06 min; in data set [3], 1.06 min; in data set [15], 2.71 min; in data set [16], 2.75 min; in data set [5] it was 0.91 min. In addition, the LC retention time in [6] is 1.89 min; in data set [13], 2.99 min; in data set [17], 3.46 min; in [12] it was 2.16 min; in data set [18], 0.91 min; in data set [19] it was 1.8 min. For the same compound, the LC retention time in data set [7] is 0.9 min; in data set [20], 0.9 min; in [9], 2.67 min; in [10] it was 1.36 min; in data set [11], 2.08 min.
As for `O=S(=O)(O)Oc1c[nH]c2ccccc12` [INDOXYL SULFATE], the LC retention time in data set [1] is 3.84 min; in data set [2] it was 12.8 min; in data set [3], 6.23 min; in data set [4], 9.62 min; in data set [5], 8.35 min; in [6] it was 5.76 min. Besides, the LC retention time in [13] is 0.95 min; in data set [7], 7.71 min; in data set [8], 9.5 min; in [9], 13.6 min; in data set [10] it was 8.8 min; in data set [11], 0.54 min.
Consider `NCCC(=O)NC(Cc1cnc[nH]1)C(=O)O` (centres undefined) [CARNOSINE], for which the LC retention time in data set [1] was 16.3 min; in [6], 1.36 min; in data set [13], 15 min; in data set [12], 15.9 min; in [9] it was 2.43 min; in [21], 4.86 min. In addition, in data set [11], the LC retention time was 15.4 min.
